From BindingDB's records for doi:10.1016/j.bmc.2018.12.038 (Peking University, 2019)

Target: T1, CD81 antigen (Homo sapiens, UniProt P60033)
T1 sequence (P60033 whole entry): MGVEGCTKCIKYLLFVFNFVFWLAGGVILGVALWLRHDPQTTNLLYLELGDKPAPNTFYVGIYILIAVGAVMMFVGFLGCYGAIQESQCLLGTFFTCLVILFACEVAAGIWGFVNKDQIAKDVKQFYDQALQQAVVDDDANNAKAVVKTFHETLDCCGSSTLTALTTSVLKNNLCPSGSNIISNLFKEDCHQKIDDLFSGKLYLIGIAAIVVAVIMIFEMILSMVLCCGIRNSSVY
Experiment: Binding affinity to CD81 (unknown origin) assessed as […] rate constant by surface plasmon resonance assay
Conditions: read-out: kon (M-1-s-1)

SMILES	kon
CC(=O)[C@@H]1C[C@H](C(=O)O)[C@@]1(C)CC/C=C(\C)C(=O)O	2.02e+06 M⁻¹ s⁻¹
C/C(=C\CC[C@]1(C)[C@@H](C(=O)O)C[C@H]1[C@](C)(O)C(=O)O)C(=O)O	2.53e+08 M⁻¹ s⁻¹
